One compound from patent US9624278B2, “Protein complex comprising MCM8 and MCM9 proteins and their use” (CENTRE NATIONAL DE LA RECHERCHE SCIENTIFIQUE, priority 2011, dated 2017) can be followed below.

Some results are limits rather than exact numbers.

Holding throughout (type): cell-based, mouse
The test system of test [1] is MCM9-deficient MEF cells. Description: BrdU incorporation and growth of MCM9-deficient MEF cells treated 24 h with aphidicolin and released. Here is the method: (§1) In Xenopus egg extracts, MCM8 and 9 were found essential for efficient DNA replication^4 5. However, in in-vitro systems derived from Xenopus eggs, DNA replication efficiency is at its maximum, as all potential DNA replication origins are activated, leading to an unusual short inter-origin space and an accelerated S phase (less than 20 min). A deficiency in DNA replication could be therefore rapidly detected. In somatic cells, S phase stands for 6-10 hrs, including during mouse early development (Wowlett and Bolton, 1985), J. Embryol. Exp. Morph, 87, 175; Ferreira and Carmon Forseca, 1997, J. Cell Sci, 11, 889). Therefore, defects in DNA replication can be compensated by induction of the store of dormant origins and/or a higher rate of replication. To investigate this possibility, and reveal possible DNA replication weaknesses in KO MEFs the Inventors first performed DNA fiber stretching^24, using a double pulse-labeling method, applying first a CldU pulse (“red” pulse), followed a second IdU pulse (“green” pulse), as in FIG. 29. Replication fork arrests can be detected by measuring the length of the second pulse, which becomes shorter if the fork is blocked or slowing down. […] To reveal whether MCM9 KO cells were more sensitive to replication stress, the Inventors treated MEF cells for 24 hrs with low concentration (1 μM) of aphidicolin (APH), an inhibitor of DNA polymerases that slows down or blocks replication forks. First, the Inventors quantified the global efficiency of DNA replication by measuring the proportion of cells incorporating BrdU. […] The Inventors concluded that KO cells were highly sensitive to replication fork inhibition. When cells were further released from APH treatment, control cells re-establish the original BrdU-intensity within the first 3 hours (FIG. 30, FIGS. 31A-T). […] The Inventors conclude that MCM9 KO cells are highly sensitive to replication stress, and unable to rescue arrested forks, resulting in growth arrest. […]
On the technique in general: Uptake of a labelled nucleoside into DNA is a usual measure of proliferation.

In test [2] the test system is WT MEF cells. The test is described as follows: BrdU incorporation and growth of WT MEF cells treated 24 h with aphidicolin and released. Here is the method: as §1
For test [3], the system named is MCM9 and MCM8. Description: Western blot of WT MEF cells exposed for 24 h to APH. The conditions noted are these: WT MEFs treated by APH. Here is the method:
FIG. 34B represents a western blot analysis of WT-(lanes A and C) and MCM9-deficient-(lanes B and D) MEF cells exposed (lanes C and D) or not (lanes A and B) for 24 h to APH for MCM9 (panel 1), MCM8 (panel 2), Chk1-P (panel 3), Chk2 (panel 4) and GAPDH (panel 5) as loading control. […] Rad51 is an essential protein of the homologous recombination pathway that is the main repair mechanisms of DSBs caused by replication fork arrest^25,12. […] For chromatin isolation, MEF cells were harvested, washed with PBS, frozen at −80° C. or directly lysed in CSK buffer (150 mM NaCl, 10 mM HEPES pH 7.5, 300 mM Sucrose, 1 mM MgCl2, 1 mM EDTA, 1 mM ATP.MgCl2, 1 mM DTT, 0.2% Triton X-100, Phosphatase-inhibitors (Calbiochem), protease-inhibitors Leupeptin, Aprotinin and Pepstatin at a concentration of 10 μg/ml) for 10 min on ice in a volume of 1 μl buffer for 2000 cells. For whole cell extract (“WCE”), a sample of the lysate was mixed with two times Laemli SDS buffer and boiled. The lysate was centrifuged at 3′800 g for 5 min at 4° C., the pellet homogenized again in CSK buffer, extracted again for 5 min on ice and centrifuged again and finally solubilized in two times Laemli SDS buffer (1 μl buffer for 5000 cells).
A general note: A western blot detects proteins with antibodies after separation by electrophoresis.

Consider `C[C@@]1(CO)[C@H](O)CC[C@@]2(C)[C@H]1CC[C@H]1C[C@@H]3C[C@@]12CC[C@]3(O)CO` [APH, aphidicolin], for which the “cell growth after the release from APH” value in test [1] (MCM9- (as well as MCM8-) KO MEF cells, 24 h APH then released without drug) is “died or stopped dividing”; in test [2] (WT MEF cells, 24 h APH then released without drug) it was “resumed growth soon”. Further, in test [1] (MCM9-deficient MEF cells, 1 μM aphidicolin, 24 hrs), the “BrdU-labeled nuclei after the APH treatment” value is listed as “nearly no BrdU-labeled nuclei”. For the same compound, the “time until percentage of BrdU-positive cells comparable to before the APH treatment” value in test [1] (surviving MCM9-deficient KO MEF cells, released from 24 h APH treatment) is 48 h. Besides, the “BrdU signal in nuclei after the APH treatment” value in test [2] (WT MEF cells, 1 μM aphidicolin, 24 hrs) is given as “strongly reduced”. Further, the “time to re-establish the original BrdU-intensity after release from APH” value in test [2] (control (WT) MEF cells, released from 24 h APH treatment) is at most 3 h. The “expression of MCM9 and MCM8 at the protein level” value in test [3] is “stronger expression”.
